# Structures can show the parent of a compound that is named as a salt.
# Molecular target: T1, Full-length human PKCθ (Homo sapiens, UniProt Q04759)
# T1 construct: Full-length human PKCθ (Carna Biosciences, final 31 ng/mL); purchased Carna Biosciences
# Assay: Measurement of human PKCθ enzyme inhibition activity (HTRF KinEASE S1 kit)
# Type: biochemical
# Settings: full-length human PKCθ, ATP 30 μM, HTRF; read-out: IC50 (nM), human PKCθ enzyme inhibition
# Method: Test Method 1: Measurement of Human PKCθ Enzyme Inhibition Activity
# The test was carried out using a HTRF® KinEASE™ S1 kit (CIS bio). […] Then, 3 μL of an ATP liquid (final 30 μM) was dispensed therein to carry out an enzyme reaction at room temperature for 1 hour.
# Ex represents Compound No. of Examples as described later.
# T1 sequence (Q04759 whole entry): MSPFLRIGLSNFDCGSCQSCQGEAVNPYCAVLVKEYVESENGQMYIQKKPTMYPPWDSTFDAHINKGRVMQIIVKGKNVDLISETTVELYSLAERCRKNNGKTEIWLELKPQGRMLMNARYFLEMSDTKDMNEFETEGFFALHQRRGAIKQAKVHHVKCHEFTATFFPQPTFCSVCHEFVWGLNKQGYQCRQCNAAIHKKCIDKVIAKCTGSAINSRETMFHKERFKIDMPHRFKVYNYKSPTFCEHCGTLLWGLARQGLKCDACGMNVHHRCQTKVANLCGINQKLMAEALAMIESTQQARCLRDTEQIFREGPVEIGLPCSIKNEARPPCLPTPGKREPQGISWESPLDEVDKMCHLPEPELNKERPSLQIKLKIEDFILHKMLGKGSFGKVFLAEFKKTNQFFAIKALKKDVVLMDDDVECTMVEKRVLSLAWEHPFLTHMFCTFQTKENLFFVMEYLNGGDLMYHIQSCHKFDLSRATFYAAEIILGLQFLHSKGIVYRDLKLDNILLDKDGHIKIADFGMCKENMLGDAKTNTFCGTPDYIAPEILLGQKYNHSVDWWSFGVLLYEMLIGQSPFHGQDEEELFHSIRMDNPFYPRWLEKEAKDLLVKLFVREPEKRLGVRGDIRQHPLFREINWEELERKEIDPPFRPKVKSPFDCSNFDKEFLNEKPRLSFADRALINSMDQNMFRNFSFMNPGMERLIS
row,IC50 [nM],Compound
1,1.3,N#Cc1cnc(NCc2ccccc2Cl)nc1NC[C@]12CC3C[C@H](C1)[C@@H](NCCCO)[C@@H](C3)C2 (relative stereo) [Example 28]
2,1.1,N#Cc1cnc(NCc2ccccc2Cl)nc1NC[C@]12CC3C[C@H](C1)[C@@H](N[C@H]1CC[C@H](O)CC1)[C@@H](C3)C2 (relative stereo) [Example 60]
3,1.9,CN(C)[C@@H]1[C@@H]2CC3C[C@H]1C[C@@](CNc1nc(NCc4ccccc4OC(F)(F)F)ncc1C#N)(C3)C2 (relative stereo) [Example 70]
4,0.65,N#Cc1cnc(NCc2ccccc2OC(F)(F)F)nc1NC[C@]12CC3C[C@H](C1)[C@@H](NC1CCOCC1)[C@@H](C3)C2 (relative stereo) [Example 74]
5,2.3,N#Cc1cnc(NCc2ccccc2OC(F)(F)F)nc1NC[C@]12CC3C[C@H](C1)[C@@H](NCc1cccnc1)[C@@H](C3)C2 (relative stereo) [Example 76]
6,2.5,N#Cc1cnc(NCc2cccc(Cl)c2Cl)nc1NC[C@]12CC3C[C@H](C1)[C@@H](N)[C@@H](C3)C2 (relative stereo) [Example 140]
7,5.3,COc1ccc(Cl)c(CNc2ncc(C#N)c(NC[C@]34CC5C[C@H](C3)[C@@H](N)[C@@H](C5)C4)n2)c1 (relative stereo) [Example 150]
8,7.6,N[C@@H]1[C@@H]2CC3C[C@H]1C[C@@](CNc1nc(NCc4ccccc4OC(F)(F)F)ncc1C(F)(F)F)(C3)C2 (relative stereo) [Example 178]
9,6.5,COc1ccccc1CNc1ncc(C#N)c(NC[C@]23CC4C[C@H](C2)[C@@H](NCC(CO)CO)[C@@H](C4)C3)n1 (relative stereo) [Example 194]
10,11,N#Cc1cnc(NCc2ccccc2Cl)nc1NC[C@]12CC3C[C@H](C1)[C@@H](NCC(=O)N1CCC(O)CC1)[C@@H](C3)C2 (relative stereo) [Example 204]
11,1.6,N#Cc1cnc(NCc2ccccc2Cl)nc1NC[C@]12CC3C[C@H](C1)[C@@H](NCCN1CCC(O)CC1)[C@@H](C3)C2 (relative stereo) [Example 208]
12,0.064,N#Cc1cnc(NCc2ccccc2OC(F)(F)F)nc1NC[C@]12CC3C[C@H](C1)[C@@H](NC1CCC(N4CCC[C@H]4CO)CC1)[C@@H](C3)C2 (relative stereo) [Example 240]
13,0.31,CC(C)N1CCC(N[C@@H]2[C@@H]3CC4C[C@H]2C[C@@](CNc2nc(NCc5ccccc5OC(F)(F)F)ncc2C#N)(C4)C3)CC1 (relative stereo) [Example 246]
14,1.9,CSc1ccccc1CNc1ncc(C#N)c(NC[C@]23CC4C[C@H](C2)[C@@H](NC[C@H]2CC[C@@H](O)CC2)[C@@H](C4)C3)n1 (relative stereo) [Example 264]
15,0.28,N#Cc1cnc(NCc2ccccc2OC(F)(F)F)nc1NC[C@]12CC3C[C@H](C1)[C@@H](N[C@H]1CC[C@@H](NC4CCOCC4)CC1)[C@@H](C3)C2 (relative stereo) [Example 284]
16,10,N#Cc1cnc(NCCc2cccc(Cl)c2)nc1NC[C@]12CC3C[C@H](C1)[C@@H](N)[C@@H](C3)C2 (relative stereo) [Example 292]
17,14,CC(Nc1ncc(C#N)c(NC[C@]23CC4C[C@H](C2)[C@@H](N)[C@@H](C4)C3)n1)c1ccccc1Cl (relative stereo) [Example 302]
18,0.86,N#Cc1cnc(NCc2ccccc2Cl)nc1NC[C@]12CC3C[C@H](C1)C(N1CCC(N)CC1)[C@@H](C3)C2 (relative stereo) [Example 318]
19,1.7,N#Cc1cnc(NCc2ccccc2Cl)nc1NC[C@]12CC3C[C@H](C1)[C@@H](NC[C@H]1CC[C@H](CO)CC1)[C@@H](C3)C2 (relative stereo) [Example 341]

row,IC50 [nM],Compound
1,0.48,CSc1ncccc1CNc1ncc(C#N)c(NC[C@]23CC4C[C@H](C2)[C@@H](NC[C@H]2CC[C@H](CO)CC2)[C@@H](C4)C3)n1 (relative stereo) [Example 342]
2,0.41,N#Cc1cnc(NCc2ccccc2OC(F)F)nc1NC[C@]12CC3C[C@H](C1)[C@@H](NC[C@H]1CC[C@H](O)CC1)[C@@H](C3)C2 (relative stereo) [Example 348]
3,1.2,N#Cc1cnc(NCc2ccccc2Cl)nc1NC[C@]12CC3C[C@H](C1)[C@@H](NCC1CCN(CC(F)F)CC1)[C@@H](C3)C2 (relative stereo) [Example 357]
4,0.58,C[C@]1(O)CC[C@H](CN[C@@H]2[C@@H]3CC4C[C@H]2C[C@@](CNc2nc(NCc5ccccc5OC(F)(F)F)ncc2C#N)(C4)C3)CC1 (relative stereo) [Example 363]
5,0.7,C[C@]1(O)CC[C@@H](CN[C@@H]2[C@@H]3CC4C[C@H]2C[C@@](CNc2nc(NCc5ccccc5OC(F)F)ncc2C#N)(C4)C3)CC1 (relative stereo) [Example 371]
6,1.6,N#Cc1cnc(NCc2ccccc2Cl)nc1NC[C@]12CC3C[C@H](C1)[C@@H](NC1CCNCC1F)[C@@H](C3)C2 (relative stereo) [Example 383]
7,3.3,N[C@@H]1[C@@H]2CC3C[C@H]1C[C@@](CNc1nc(NCc4ccccc4OC(F)(F)F)ncc1[N+](=O)[O-])(C3)C2 (relative stereo) [Example 388]
8,2.1,N[C@@H]1[C@@H]2CC3C[C@H]1C[C@@](CNc1nc(NCc4ccccc4OC(F)(F)F)ncc1F)(C3)C2 (relative stereo) [Example 390]
9,1,N#Cc1cnc(NCc2ccccc2OC(F)(F)F)nc1NC[C@]12CC3C[C@H](C1)[C@@H](N1CCC(O)C1)[C@@H](C3)C2 (stereo partly shown) [Example 11]
10,15,N#Cc1cnc(NCc2ccccc2OC(F)(F)F)nc1NC[C@]12CC3C[C@H](C1)C[C@@](CN)(C3)C2 [Example 57]
11,89,N#Cc1cnc(NCc2ccccc2OC(F)(F)F)nc1NC[C@H]1C[C@H](N)C1 [Example 125]
12,100,N#Cc1cnc(NCc2ccccc2OC(F)(F)F)nc1NC[C@@H]1CC[C@@H](N)C1 [Example 126]
13,13,COc1ccc(CO)cc1CNc1ncc(C#N)c(NC[C@]23CC4C[C@H](C2)[C@@H](N)[C@@H](C4)C3)n1 [Example 139]
14,1.6,N#Cc1cnc(NCCc2ccc(O)cc2)nc1NC[C@]12CC3C[C@H](C1)[C@@H](N)[C@@H](C3)C2 [Example 145]
15,67,N#Cc1cnc(NCc2ccccc2OC(F)(F)F)nc1NCCC(=O)N1CCNCC1 [Example 156]
16,2.3,N#Cc1cnc(NCc2cccnc2Cl)nc1NC[C@]12CC3C[C@H](C1)[C@@H](N)[C@@H](C3)C2 [Example 165]
17,29,N#Cc1cnc(NCc2ccccc2OC(F)(F)F)nc1NCC1[C@@H]2CC3C[C@H]1C[C@@](CN)(C3)C2 (stereo partly shown) [Example 183]
18,3.8,N#Cc1cnc(Nc2cccc(Br)c2)nc1NC[C@]12CC3C[C@H](C1)[C@@H](N)[C@@H](C3)C2 [Example 187]
19,1.7,COc1ccccc1CNc1ncc(C#N)c(NC[C@]23CC4C[C@H](C2)[C@@H](NCC(O)CCO)[C@@H](C4)C3)n1 (stereo partly shown) [Example 189]

row,Compound,IC50 [nM]
1,N#Cc1cnc(NCc2ccccc2OC(F)(F)F)nc1NCC1CN2CCC1CC2 (stereo not shown) [Example 48],54
2,"N#Cc1cnc(NCc2ccccc2OC(F)(F)F)nc1NCC1CC2CCC(C1)N2 (stereo not shown) [Example 170, 4-[(8-azabicyclo[3.2.1]oct-3-ylmethyl)amino]-2-{[2-(trifluoromethoxy)benzyl]amino}pyrimidine-5-carbonitrile dihydrochloride]",110
